Source: PubChem BioAssay (NCI)
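Values below derive from 48-hour exposures of cells grown in 96-well plates, with endpoints linearly interpolated between the two concentrations bracketing the appropriate inhibition level. GI50 = concentration required for 50% inhibition of growth. TGI is the concentration that stops growth completely.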

What was measured:
Assay in all cases: DTP human tumour cell line panel, 48 h
[1] = tested on: 786-0 renal
[2] = tested on: A498 renal
[3] = tested on: A549 NSCLC
[4] = tested on: ACHN renal
[5] = tested on: BT-549 breast
[6] = tested on: CAKI-1 renal
[7] = tested on: CCRF-CEM leukemia
[8] = tested on: COLO 205 colon
[9] = tested on: DU-145 prostate
[10] = tested on: EKVX NSCLC
[11] = tested on: HCC-2998 colon
[12] = tested on: HCT-116 colon
[13] = tested on: HCT-15 colon
[14] = tested on: HL-60(TB) leukemia
[15] = tested on: HOP-62 NSCLC
[16] = tested on: HOP-92 NSCLC
[17] = tested on: HS 578T breast
[18] = tested on: HT29 colon
[19] = tested on: IGROV1 ovarian
[20] = tested on: K-562 leukemia
[21] = tested on: KM12 colon
[22] = tested on: LOX IMVI melanoma
[23] = tested on: M14 melanoma
[24] = tested on: MCF7 breast
[25] = tested on: MDA-MB-231 breast
[26] = tested on: MDA-MB-435
[27] = tested on: MOLT-4 leukemia
[28] = tested on: NCI-H226 lung
[29] = tested on: NCI-H460 lung
[30] = tested on: NCI-H522 lung
[31] = tested on: NCI/ADR-RES ovarian
[32] = tested on: OVCAR-3 ovarian
[33] = tested on: OVCAR-4 ovarian
[34] = tested on: OVCAR-5 ovarian
[35] = tested on: OVCAR-8 ovarian
[36] = tested on: PC-3 prostate
[37] = tested on: RPMI-8226 leukemia
[38] = tested on: RXF 393 renal
[39] = tested on: SF-268 CNS
[40] = tested on: SF-295 CNS
[41] = tested on: SF-539 CNS
[42] = tested on: SK-MEL-2 melanoma
[43] = tested on: SK-MEL-28 melanoma
[44] = tested on: SK-MEL-5 melanoma
[45] = tested on: SK-OV-3 ovarian
[46] = tested on: SN12C renal
[47] = tested on: SNB-19 CNS
[48] = tested on: SNB-75 CNS
[49] = tested on: SR leukemia
[50] = tested on: SW-620 colon
[51] = tested on: T-47D breast
[52] = tested on: TK-10 renal
[53] = tested on: U251 CNS
[54] = tested on: UACC-257 melanoma
[55] = tested on: UACC-62 melanoma
[56] = tested on: UO-31 renal

For `CS(=O)(=O)c1ccc(-n2nc(C(F)(F)F)cc2OC2CCCC2)cc1`, the GI50 [1] was 34 µM, the TGI [1] was > 100 µM and the GI50 [2] was 25.2 µM. For the same molecule, the TGI [2] was 56.2 µM, the GI50 [3] was 25.7 µM and the TGI [3] was 79.4 µM. It also gave a GI50 [4] of 22.4 µM, a TGI [4] of 56 µM and a GI50 [5] of 28.5 µM. For the same molecule, the TGI [5] was 73 µM, the GI50 [6] was 21.1 µM and the TGI [6] was 54.4 µM. The GI50 [7] was 38.3 µM, the TGI [7] was > 100 µM and the GI50 [8] was 29 µM. For the same molecule, the TGI [8] was 81.7 µM, the GI50 [9] was 38.9 µM and the TGI [9] was > 100 µM. For the same molecule, the GI50 [10] was 82.5 µM, the TGI [10] was > 100 µM and the GI50 [11] was 27 µM. The TGI [11] was 73.5 µM, the GI50 [12] was 34.5 µM and the TGI [12] was > 100 µM. It also gave a GI50 [13] of 30.6 µM, a TGI [13] of 80.1 µM and a GI50 [14] of 24 µM. For the same molecule, the TGI [14] was 59.3 µM, the GI50 [15] was 88 µM and the TGI [15] was > 100 µM. The GI50 [16] was 50.7 µM, the TGI [16] was > 100 µM and the GI50 [17] was > 100 µM. For the same molecule, the TGI [17] was > 100 µM, the GI50 [18] was 24.7 µM and the TGI [18] was 78.4 µM. The GI50 [19] was > 100 µM, the TGI [19] was > 100 µM and the GI50 [20] was 29.1 µM. For the same molecule, the TGI [20] was 92.6 µM, the GI50 [21] was 38.5 µM and the TGI [21] was > 100 µM. For the same molecule, the GI50 [22] was 16.9 µM, the TGI [22] was 54.6 µM and the GI50 [23] was 32.2 µM. The TGI [23] was 93.5 µM, the GI50 [24] was 25.4 µM and the TGI [24] was 80.2 µM. It also gave a GI50 [25] of 26 µM, a TGI [25] of 71.2 µM and a GI50 [26] of 59.6 µM. For the same molecule, the TGI [26] was > 100 µM, the GI50 [27] was 35.9 µM and the TGI [27] was > 100 µM. The GI50 [28] was 34 µM, the TGI [28] was > 100 µM and the GI50 [29] was 27.8 µM. The TGI [29] was > 100 µM, the GI50 [30] was 45.8 µM and the TGI [30] was > 100 µM. It also gave a GI50 [31] of 25 µM, a TGI [31] of 81.8 µM and a GI50 [32] of 32.9 µM. For the same molecule, the TGI [32] was > 100 µM, the GI50 [33] was 30.3 µM and the TGI [33] was > 100 µM. For the same molecule, the GI50 [34] was > 100 µM, the TGI [34] was > 100 µM and the GI50 [35] was 43.8 µM. For the same molecule, the TGI [35] was > 100 µM, the GI50 [36] was 27.7 µM and the TGI [36] was > 100 µM. The GI50 [37] was 34.8 µM, the TGI [37] was > 100 µM and the GI50 [38] was 94.3 µM. For the same molecule, the TGI [38] was > 100 µM, the GI50 [39] was 36.1 µM and the TGI [39] was > 100 µM. The GI50 [40] was 37.4 µM, the TGI [40] was > 100 µM and the GI50 [41] was 39.8 µM. For the same molecule, the TGI [41] was > 100 µM, the GI50 [42] was > 100 µM and the TGI [42] was > 100 µM. The GI50 [43] was > 100 µM, the TGI [43] was > 100 µM and the GI50 [44] was 19.5 µM. For the same molecule, the TGI [44] was 36.2 µM, the GI50 [45] was 51.8 µM and the TGI [45] was > 100 µM. For the same molecule, the GI50 [46] was 25.8 µM, the TGI [46] was 71.7 µM and the GI50 [47] was 48.7 µM. For the same molecule, the TGI [47] was > 100 µM, the GI50 [48] was > 100 µM and the TGI [48] was > 100 µM. It also gave a GI50 [49] of 19.8 µM, a TGI [49] of 47.9 µM and a GI50 [50] of 71.2 µM. The TGI [50] was > 100 µM, the GI50 [51] was 33 µM and the TGI [51] was > 100 µM. For the same molecule, the GI50 [52] was 36.9 µM, the TGI [52] was 93.9 µM and the GI50 [53] was 22.1 µM. The TGI [53] was 75 µM, the GI50 [54] was 40.1 µM and the TGI [54] was > 100 µM. For the same molecule, the GI50 [55] was 33.3 µM, the TGI [55] was > 100 µM and the GI50 [56] was > 100 µM. The TGI [56] was > 100 µM.
